Measured values taken from ChEMBL document CHEMBL4196079, “Molecular interaction of novel benzothiazolyl triazolium analogues with calf thymus DNA and HSA-their biological investigation as potent antimicrobial agents” (Eur J Med Chem, 2018).
Values after ≈ are worked out from the molar mass of the structure shown.

Columns and labels:
Shigella dysenteriae = experiment: Antibacterial activity against Shigella dysenteriae after 24 hrs by NCCLS micro broth dilution method; format: functional
Salmonella typhi = experiment: Antibacterial activity against Salmonella typhi after 24 hrs by NCCLS micro broth dilution method; format: functional, Salmonella enterica subsp. enterica serovar Typhi; conditions: Salmonella enterica
Pseudomonas aeruginosa = experiment: Antibacterial activity against Pseudomonas aeruginosa ATCC 27853 after 24 hrs by NCCLS micro broth dilution method; format: functional; conditions: ATCC 27853, 24 h
Escherichia coli [1] = experiment: Antibacterial activity against Escherichia coli JM109 after 24 hrs by NCCLS micro broth dilution method; format: functional; conditions: JM109, 24 h
Micrococcus luteus = experiment: Antibacterial activity against Micrococcus luteus ATCC 4698 after 24 hrs by micro broth dilution method; format: functional; conditions: ATCC 4698, 24 h
Pichia norvegensis = experiment: Antifungal activity against Candida mycoderma after 24 hrs by NCCLS micro broth dilution method; format: functional
Staphylococcus aureus [2] = experiment: Antibacterial activity against methicillin-resistant Staphylococcus aureus N315 after 24 hrs by NCCLS micro broth dilution method; format: functional; conditions: N315, 24 h
MDA-MB-231 = experiment: Cytotoxicity against human MDA-MB-231 cells after 24 hrs by MTT assay; format: cell-based; conditions: MDA-MB-231, 24 h
Aspergillus flavus = experiment: Antifungal activity against Aspergillus flavus after 24 hrs by NCCLS micro broth dilution method; format: functional
Bacillus subtilis = experiment: Antibacterial activity against Bacillus subtilis ATCC 21216 after 24 hrs by NCCLS micro broth dilution method; format: functional; conditions: ATCC 21216, 24 h
Candida albicans = experiment: Antifungal activity against Candida albicans ATCC 76615 after 24 hrs by NCCLS micro broth dilution method; format: functional; conditions: ATCC 76615, 24 h
Escherichia coli [3] = experiment: Antibacterial activity against Escherichia coli DH52 after 24 hrs by NCCLS micro broth dilution method; format: functional; conditions: DH52, 24 h
Bacillus = experiment: Antibacterial activity against Bacillus proteus ATCC 13315 after 24 hrs by NCCLS micro broth dilution method; format: functional; conditions: ATCC 13315, 24 h
Cyberlindnera jadinii = experiment: Antifungal activity against Candida utilis after 24 hrs by NCCLS micro broth dilution method; format: functional; conditions: Williopsis jadinii
Saccharomyces cerevisiae [4] = experiment: Antifungal activity against Saccharomyces cerevisiae after 24 hrs by NCCLS micro broth dilution method; format: functional
Staphylococcus aureus [5] = experiment: Antibacterial activity against Staphylococcus aureus ATCC 25923 after 24 hrs by NCCLS micro broth dilution method; format: functional; conditions: ATCC 25923, 24 h
Saccharomyces cerevisiae [6] = experiment: Potency index, ratio of fluconazole MIC to compound MIC for antifungal activity against Saccharomyces cerevisiae; format: functional
Albumin [7] = target: T1, Albumin (Homo sapiens, UniProt P02768); experiment: Binding affinity to HSA assessed as Stern-Volmer quenching constant at pH 7.3 at 310 K by fluorescence assay; format: ADME; conditions: isolated protein
T1 sequence (P02768 whole entry): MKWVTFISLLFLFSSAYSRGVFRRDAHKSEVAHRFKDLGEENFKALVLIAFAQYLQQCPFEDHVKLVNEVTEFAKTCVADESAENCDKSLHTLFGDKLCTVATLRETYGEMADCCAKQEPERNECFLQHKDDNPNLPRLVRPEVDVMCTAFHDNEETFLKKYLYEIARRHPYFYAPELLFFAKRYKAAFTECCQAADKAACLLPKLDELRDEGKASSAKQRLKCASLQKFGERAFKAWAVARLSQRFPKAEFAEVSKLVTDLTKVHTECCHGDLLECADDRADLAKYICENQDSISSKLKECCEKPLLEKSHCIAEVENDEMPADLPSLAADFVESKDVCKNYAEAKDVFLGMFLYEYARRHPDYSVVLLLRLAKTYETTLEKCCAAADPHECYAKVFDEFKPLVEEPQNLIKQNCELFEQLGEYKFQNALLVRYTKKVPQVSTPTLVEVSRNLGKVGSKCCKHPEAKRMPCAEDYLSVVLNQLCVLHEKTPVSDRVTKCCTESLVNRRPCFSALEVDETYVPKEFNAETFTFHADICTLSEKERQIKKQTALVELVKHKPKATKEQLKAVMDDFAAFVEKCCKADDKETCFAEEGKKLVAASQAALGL

Albumin [8] = target: T1, Albumin; experiment: Binding affinity to HSA assessed as biomolecular quenching rate constant at pH 7.3 at 303 K by fluorescence assay; format: ADME; conditions: isolated protein
Albumin [9] = target: T1, Albumin; experiment: Binding affinity to HSA assessed as Stern-Volmer quenching constant at pH 7.3 at 303 K by fluorescence assay; format: ADME; conditions: isolated protein
Albumin [10] = target: T1, Albumin; experiment: Binding affinity to HSA assessed as change in free energy at 303 K by Van't hoff plot analysis; format: ADME; conditions: isolated protein
Albumin [11] = target: T1, Albumin; experiment: Binding affinity to HSA assessed as change in enthalpy at 286 K by Van't hoff plot analysis; format: ADME; conditions: isolated protein
Albumin [12] = target: T1, Albumin; experiment: Binding affinity to HSA assessed as change in free energy at 310 K by Van't hoff plot analysis; format: ADME; conditions: isolated protein
Albumin [13] = target: T1, Albumin; experiment: Binding affinity to HSA assessed as change in entropy at 286 K by Van't hoff plot analysis; format: ADME; conditions: isolated protein
Calf thymus DNA = experiment: Inhibition of neutral red binding to calf thymus DNA by UV-Visible absorption spectroscopy; format: nucleic-acid assay; conditions: Bos taurus
Albumin [14] = target: T1, Albumin; experiment: Binding affinity to HSA assessed as biomolecular quenching rate constant at pH 7.3 at 310 K by fluorescence assay; format: ADME; conditions: isolated protein
Albumin [15] = target: T1, Albumin; experiment: Binding affinity to HSA assessed as change in free energy at 286 K by Van't hoff plot analysis; format: ADME; conditions: isolated protein
Albumin [16] = target: T1, Albumin; experiment: Binding affinity to HSA assessed as Stern-Volmer quenching constant at pH 7.3 at 286 K by fluorescence assay; format: ADME; conditions: isolated protein
Albumin [17] = target: T1, Albumin; experiment: Binding affinity to HSA assessed as biomolecular quenching rate constant at pH 7.3 at 286 K by fluorescence assay; format: ADME; conditions: isolated protein

Structure (SMILES) | MIC (Shigella dysenteriae) | MIC (Salmonella typhi) | MIC (Pseudomonas aeruginosa) | MIC (Escherichia coli [1]) | MIC (Micrococcus luteus) | MIC (Pichia norvegensis) | MIC (Staphylococcus aureus [2]) | MIC (Aspergillus flavus) | MIC (Bacillus subtilis) | MIC (Candida albicans) | MIC (Escherichia coli [3]) | MIC (Bacillus) | MIC (Cyberlindnera jadinii) | MIC (Saccharomyces cerevisiae [4]) | MIC (Staphylococcus aureus [5]) | Ratio (Saccharomyces cerevisiae [6]) | also measured
CCOc1ccc2c(c1)sc1nc(-c3ccccc3)c(COCc3cn(Cc4cccc(F)c4)nn3)n12 | 128 µg/mL (≈ 249 µM) | 32 µg/mL (≈ 62.3 µM) | 64 µg/mL (≈ 125 µM) | 128 µg/mL (≈ 249 µM) | 128 µg/mL (≈ 249 µM) | 16 µg/mL (≈ 31.2 µM) | 16 µg/mL (≈ 31.2 µM) | 64 µg/mL (≈ 125 µM) | 128 µg/mL (≈ 249 µM) | 8 µg/mL (≈ 15.6 µM) | 16 µg/mL (≈ 31.2 µM) | 64 µg/mL (≈ 125 µM) | 16 µg/mL (≈ 31.2 µM) | 32 µg/mL (≈ 62.3 µM) | 128 µg/mL (≈ 249 µM) |  | IC50 (MDA-MB-231): < 100 µg/mL
CCCCCn1cc(COCc2c(-c3ccccc3)nc3sc4cc(OCC)ccc4n23)nn1 | 128 µg/mL (≈ 269 µM) | 128 µg/mL (≈ 269 µM) | 128 µg/mL (≈ 269 µM) | 128 µg/mL (≈ 269 µM) | 128 µg/mL (≈ 269 µM) | 4 µg/mL (≈ 8.41 µM) | 32 µg/mL (≈ 67.3 µM) | 32 µg/mL (≈ 67.3 µM) | 64 µg/mL (≈ 135 µM) | 8 µg/mL (≈ 16.8 µM) | 128 µg/mL (≈ 269 µM) | 64 µg/mL (≈ 135 µM) | 1 µg/mL (≈ 2.1 µM) | 8 µg/mL (≈ 16.8 µM) | 128 µg/mL (≈ 269 µM) | 2 | 
CCCCCCn1cc(COCc2c(-c3ccccc3)nc3sc4ccccc4n23)nn1 | 2 µg/mL (≈ 4.49 µM) | 16 µg/mL (≈ 35.9 µM) | 16 µg/mL (≈ 35.9 µM) | 32 µg/mL (≈ 71.8 µM) | 2 µg/mL (≈ 4.49 µM) | 32 µg/mL (≈ 71.8 µM) | 16 µg/mL (≈ 35.9 µM) | 32 µg/mL (≈ 71.8 µM) | 16 µg/mL (≈ 35.9 µM) | 8 µg/mL (≈ 18 µM) | 32 µg/mL (≈ 71.8 µM) | 8 µg/mL (≈ 18 µM) | 4 µg/mL (≈ 8.98 µM) | 8 µg/mL (≈ 18 µM) | 8 µg/mL (≈ 18 µM) | 2 | 
CCOc1ccc2c(c1)sc1nc(-c3ccccc3)c(COCc3cn(Cc4ccc(F)cc4)nn3)n12 | 16 µg/mL (≈ 31.2 µM) | 32 µg/mL (≈ 62.3 µM) | 64 µg/mL (≈ 125 µM) | 64 µg/mL (≈ 125 µM) | 128 µg/mL (≈ 249 µM) | 8 µg/mL (≈ 15.6 µM) | 128 µg/mL (≈ 249 µM) | 64 µg/mL (≈ 125 µM) | 64 µg/mL (≈ 125 µM) | 8 µg/mL (≈ 15.6 µM) | 32 µg/mL (≈ 62.3 µM) | 64 µg/mL (≈ 125 µM) | 16 µg/mL (≈ 31.2 µM) | 32 µg/mL (≈ 62.3 µM) | 128 µg/mL (≈ 249 µM) |  | 
CCOc1ccc2c(c1)sc1nc(-c3ccccc3)c(COCc3cn(Cc4ccc(Cl)c(Cl)c4)nn3)n12 | 16 µg/mL (≈ 28.3 µM) | 8 µg/mL (≈ 14.2 µM) | 4 µg/mL (≈ 7.09 µM) | 1 µg/mL (≈ 1.77 µM) | 2 µg/mL (≈ 3.54 µM) | 4 µg/mL (≈ 7.09 µM) | 16 µg/mL (≈ 28.3 µM) | 64 µg/mL (≈ 113 µM) | 4 µg/mL (≈ 7.09 µM) | 8 µg/mL (≈ 14.2 µM) | 32 µg/mL (≈ 56.7 µM) | 8 µg/mL (≈ 14.2 µM) | 2 µg/mL (≈ 3.54 µM) | 16 µg/mL (≈ 28.3 µM) | 16 µg/mL (≈ 28.3 µM) |  | KSV (Albumin [7]): 3.42 ×10⁴ L/mol; Kq (Albumin [8]): 5.53 ×10¹² L/mol/s; KSV (Albumin [9]): 3.54 ×10⁴ L/mol; deltaG (Albumin [10]): -24.762 kJ/mol; deltaH (Albumin [11]): -6.43 kJ/mol; deltaG (Albumin [12]): -25.185 kJ/mol; deltaS (Albumin [13]): 60.5 J/mol.K; inhibition (Calf thymus DNA): Dose-dependent effect; Kq (Albumin [14]): 5.34 ×10¹² L/mol/s; deltaG (Albumin [15]): -24.733 kJ/mol; KSV (Albumin [16]): 4.04 ×10⁴ L/mol; Kq (Albumin [17]): 6.36 ×10¹² L/mol/s
